From the NIST ThermoML archive (doi:10.1016/j.jct.2013.01.013)

Assay: xn = mol fraction of the nth substance listed
Details: 101 kPa, Liquid; for viscosity: Capillary tube (Ostwald / Ubbelohde) method; for speed of sound: Linear variable-path acoustic interferometer; for mass density: Pycnometric method

C=C(C)C(=O)OC [methyl methacrylate] + CN(C)C=O
Details	mass density [kg/m3]	speed of sound [m/s]	viscosity [mPa·s]
288.15 K, x1 = 0.0696	953.35	1484.1	0.905
288.15 K, x1 = 0.1417	953.07	1464.4	0.868
288.15 K, x1 = 0.211	952.8	1445.5	0.8355
288.15 K, x1 = 0.2855	952.5	1425.2	0.8041
288.15 K, x1 = 0.3573	952.22	1405.4	0.7765
288.15 K, x1 = 0.4308	951.91	1384.8	0.7513
288.15 K, x1 = 0.5042	951.58	1363.9	0.729
288.15 K, x1 = 0.578	951.23	1342.6	0.7083
288.15 K, x1 = 0.6552	950.86	1320	0.6885
288.15 K, x1 = 0.7204	950.53	1300.7	0.6742
288.15 K, x1 = 0.7873	950.19	1280.7	0.6612
288.15 K, x1 = 0.8548	949.84	1260.4	0.6505
288.15 K, x1 = 0.9268	949.47	1238.7	0.6417
288.15 K, x1 = 1	949.1	1216.8	0.634
293.15 K, x1 = 0.0696	948.76	1466.8	0.834
293.15 K, x1 = 0.1417	948.39	1447.2	0.8009
293.15 K, x1 = 0.211	948.03	1428.4	0.7713
293.15 K, x1 = 0.2855	947.64	1408.2	0.742
293.15 K, x1 = 0.3573	947.25	1388.5	0.717
293.15 K, x1 = 0.4308	946.85	1368	0.6941
293.15 K, x1 = 0.5042	946.43	1347.2	0.6736
293.15 K, x1 = 0.578	946	1326	0.6552
293.15 K, x1 = 0.6552	945.53	1303.5	0.6382
293.15 K, x1 = 0.7204	945.13	1284.3	0.6261
293.15 K, x1 = 0.7873	944.72	1264.4	0.6149
293.15 K, x1 = 0.8548	944.29	1244.1	0.6055
293.15 K, x1 = 0.9268	943.83	1222.5	0.598
293.15 K, x1 = 1	943.37	1200.5	0.5903
298.15 K, x1 = 0.0696	944.17	1450	0.7818
298.15 K, x1 = 0.1417	943.71	1430.6	0.7509
298.15 K, x1 = 0.211	943.26	1411.8	0.7233
298.15 K, x1 = 0.2855	942.77	1391.5	0.6958
298.15 K, x1 = 0.3573	942.29	1371.8	0.672
298.15 K, x1 = 0.4308	941.79	1351.3	0.651
298.15 K, x1 = 0.5042	941.28	1330.4	0.632
298.15 K, x1 = 0.578	940.76	1309.2	0.6151
298.15 K, x1 = 0.6552	940.21	1286.7	0.6
298.15 K, x1 = 0.7204	939.73	1267.4	0.5885
298.15 K, x1 = 0.7873	939.24	1247.4	0.5786
298.15 K, x1 = 0.8548	938.74	1227.1	0.57
298.15 K, x1 = 0.9268	938.19	1205.3	0.5625
298.15 K, x1 = 1	937.63	1183.6	0.5544
303.15 K, x1 = 0.0696	939.58	1430.3	0.737
303.15 K, x1 = 0.1417	939.03	1411.3	0.7088
303.15 K, x1 = 0.211	938.49	1393	0.683
303.15 K, x1 = 0.2855	937.9	1373.1	0.6568
303.15 K, x1 = 0.3573	937.33	1353.7	0.6346
303.15 K, x1 = 0.4308	936.73	1333.6	0.6148
303.15 K, x1 = 0.5042	936.13	1313.1	0.5972
303.15 K, x1 = 0.578	935.52	1292.3	0.5817
303.15 K, x1 = 0.6552	934.88	1270.3	0.5675
303.15 K, x1 = 0.7204	934.33	1251.4	0.5575
303.15 K, x1 = 0.7873	933.76	1231.8	0.5486
303.15 K, x1 = 0.8548	933.19	1211.8	0.5408
303.15 K, x1 = 0.9268	932.55	1190.4	0.5331
303.15 K, x1 = 1	931.89	1168.5	0.5251
308.15 K, x1 = 0.0696	934.99	1411	0.694
308.15 K, x1 = 0.1417	934.35	1392.3	0.6678
308.15 K, x1 = 0.211	933.72	1374.3	0.6435
308.15 K, x1 = 0.2855	933.03	1354.7	0.6191
308.15 K, x1 = 0.3573	932.36	1335.6	0.5978
308.15 K, x1 = 0.4308	931.67	1315.7	0.5793
308.15 K, x1 = 0.5042	930.98	1295.5	0.563
308.15 K, x1 = 0.578	930.28	1275	0.5488
308.15 K, x1 = 0.6552	929.55	1253.3	0.5358
308.15 K, x1 = 0.7204	928.93	1234.7	0.5268
308.15 K, x1 = 0.7873	928.28	1215.4	0.5188
308.15 K, x1 = 0.8548	927.63	1195.7	0.5113
308.15 K, x1 = 0.9268	926.91	1174.4	0.5038
308.15 K, x1 = 1	926.15	1152.6	0.496
313.15 K, x1 = 0.0696	930.4	1393.7	0.662
313.15 K, x1 = 0.1417	929.67	1375.1	0.6373
313.15 K, x1 = 0.211	928.95	1357.1	0.6142
313.15 K, x1 = 0.2855	928.16	1337.5	0.5913
313.15 K, x1 = 0.3573	927.4	1318.4	0.5713
313.15 K, x1 = 0.4308	926.61	1298.4	0.5529
313.15 K, x1 = 0.5042	925.83	1278.3	0.5375
313.15 K, x1 = 0.578	925.04	1257.9	0.5237
313.15 K, x1 = 0.6552	924.22	1236.2	0.5115
313.15 K, x1 = 0.7204	923.53	1217.7	0.503
313.15 K, x1 = 0.7873	922.81	1198.4	0.4951
313.15 K, x1 = 0.8548	922.07	1178.7	0.4875
313.15 K, x1 = 0.9268	921.26	1157.4	0.4796
313.15 K, x1 = 1	920.41	1135.4	0.4723
318.15 K, x1 = 0.0696	925.81	1375.2	0.6419
318.15 K, x1 = 0.1417	924.99	1356.8	0.6179
318.15 K, x1 = 0.211	924.18	1338.9	0.5953
318.15 K, x1 = 0.2855	923.29	1319.4	0.5728
318.15 K, x1 = 0.3573	922.44	1300.3	0.553
318.15 K, x1 = 0.4308	921.55	1280.5	0.5345
318.15 K, x1 = 0.5042	920.68	1260.5	0.5185
318.15 K, x1 = 0.578	919.8	1240.2	0.5045
318.15 K, x1 = 0.6552	918.89	1218.7	0.4925
318.15 K, x1 = 0.7204	918.12	1200.3	0.4837
318.15 K, x1 = 0.7873	917.33	1181.2	0.475
318.15 K, x1 = 0.8548	916.51	1161.6	0.467
318.15 K, x1 = 0.9268	915.61	1140.4	0.4583
318.15 K, x1 = 1	914.66	1118.3	0.4499
